The results in this text go back to patent publication US20070148703A1, “Method of screening remedy for breast cancer” (Genomembrane, Inc., priority 2003, published 2007).

In assay [1] the test system is T-47D cells. The assay is described as follows: Uptake of DHEAS by T-47D cells (time course, concentration dependence). The settings on record: 10.3 nM to 100 μM, 37° C., 10 min, saturable uptake. In kind it is cell-based, human. The protocol: The uptake of DHEAS at various concentrations, ranging from 10.3 nM to 100 μM, was measured at 37° C. for 10 min. The saturable uptake was obtained after subtraction of the uptake in the presence of excess of unlabeled DHEAS (5 mM) and used for the evaluation of kinetic constants by nonlinear least-squares analysis. […] Each value represents the mean±S.E.M. (n=4). When the error bars are not shown, they are smaller than the symbols.
Transport experiments were performed as described previously (Tamai et al., 2001). After cultivation of T-47D cells in 15 cm dishes, the cells were harvested and suspended in the transport medium containing 125 mM NaCl, 4.8 mM KCl, 5.6 mM D-glucose, 1.2 mM CaCl2, 1.2 mM KH2PO4, 1.2 mM MgSO4 and 25 mM Hepes, adjusted to pH 7.4. […] Then, the associated radioactivity was measured by means of a liquid scintillation counter using Clearsol-1 (Nacalai tesque) as a liquid scintillation fluid.
Cellular protein content was determined according to the method of Bradford by using a BioRad protein assay kit (Hercules) with bovine serum albumin as the standard (Bradford, 1976). […] All data were expressed as means±S.E.M., and statistical analysis was performed by the use of Student's t test with P<0.05 as the criterion of significance. […]

The subject of assay [2] is T-47D cells. The assay is described as follows: Inhibition of [3H] estrone-3-sulfate uptake by T-47D cells. It is filed as cell-based, human. The settings on record: mean±S.E.M. (n=4). As to the method:
The cell suspension and a solution containing a radiolabeled test compound in the transport medium were separately incubated at 37° C. for 20 min, then transport was initiated by mixing them. […] Each cell pellet was solubilized in 3 N KOH, and neutralized with HCl. Then, the associated radioactivity was measured by means of a liquid scintillation counter using Clearsol-1 (Nacalai tesque) as a liquid scintillation fluid.
To characterize the substrate specificity of the transport system, the inhibitory effects of hormones, their conjugated metabolites, and various organic compounds on [^3H] estrone-3-sulfate uptake by T-47D cells were examined. The results are shown in (Table 1). In Table 1, values in control (%) are indicated as the ratio in comparison to uptake amount of estrone-3-sulfate in control which was set at 100%. Each value represents the mean±S.E.M. (n=4), and *P<0.05 indicates comparison to control (Student's test).

The term Km denotes the substrate concentration at which the rate is half of its maximum. For Dehydroepiandrosterone sulfate, the Km in assay [1] was 62.5 ± 21.1 µM. For the same substance, in assay [1], the “Vmax of DHEAS uptake” value was found to be 1893±315.7 pmol/mg protein/10 min. For the same substance, the “[3H] estrone-3-sulfate uptake, Control (%)” value is on record as 66.4 ± 5.7 * % in assay [2] (inhibitor 5 μM); 27.0 ± 7.6 * % in assay [2] (inhibitor 50 μM); 44.8% in assay [2] (inhibitor 50 μM, listed as DHEAS).
